Experimental data: PubChem BioAssay AID488967 (The Scripps Research Institute Molecular Screening Center, 2010)
Activity calls are given as the source filed them. The rule behind the calls is not given here.

System: SARS coronavirus 3C-like protease (3CLpro, nsp5)
Assay: blockers of SARS 3CLpro activity – biochemical, fluorescence, assay provider results, late-stage follow-up (AID 488967)
Details: recombinant 3CLpro, fluorogenic peptide cleavage; at 100 µM; stronger effect = higher value

## CC(C)COC(=O)Nc1ccc(N(C(=O)Cn2nnc3ccccc32)C(C(=O)NC(C)(C)C)c2ccsc2)cc1 (configuration not stated)
  inhibition: 0.9% (inactive)

## CC(C)(C)NC(=O)C(c1cccnc1)N(C(=O)Cc1cnc[nH]1)c1ccc(C(C)(C)C)cc1 (configuration not stated)
  inhibition: 15.7% (inactive)

## CC(C)(C)NC(=O)[C@H](c1cccnc1)N(C(=O)c1ccco1)c1ccc(C(C)(C)C)cc1
  inhibition: 25% (inactive)

## CC(C)(C)NC(=O)C(c1ccsc1)N(C(=O)Cn1nnc2ccccc21)c1ccc(NC(=O)C2CC2)cc1 (configuration not stated)
  inhibition: 85.7%

## CC(C)(C)NC(=O)C(c1ccsc1)N(C(=O)Cn1nnc2ccccc21)c1ccc(NC(=O)C2CCCCC2)cc1 (configuration not stated)
  inhibition: 84.9%

## CC(=O)Nc1ccc(N(C(=O)Cn2nnc3ccccc32)C(C(=O)NCc2ccccc2)c2cccc(F)c2)cc1 (configuration not stated)
  inhibition: 84.7%

## CC(C)(C)NC(=O)[C@@H](c1cccnc1)N(C(=O)c1ccco1)c1ccc(C(C)(C)C)cc1
  inhibition: 98.8%

## O=C(NCc1ccccc1)C(c1cccc(F)c1)N(C(=O)Cn1nnc2ccccc21)C1CC2CCC1C2 (configuration not stated)
  inhibition: 42.5% (inactive)

## O=C(Nc1ccc(N(Cc2ccsc2)C(=O)Cn2nnc3ccccc32)cc1)c1cccs1
  inhibition: 32.9% (inactive)

## CC(C)(C)NC(=O)C(c1ccsc1)N(C(=O)Cn1nnc2ccccc21)c1ccc(NC(=O)C(C)(C)C)cc1 (configuration not stated)
  inhibition: 77.4%

## CC(C)(C)NC(=O)C(c1cncnc1)N(C(=O)c1cnc[nH]1)c1ccc(C(C)(C)C)cc1 (configuration not stated)
  inhibition: 66.8%

## CCC(C)c1ccc(N(C(=O)c2ccco2)[C@@H](C(=O)NC(C)(C)C)c2cccnc2)cc1 (some centres not stated)
  inhibition: -3.8% (inactive)

## CC(C)COC(=O)Nc1ccc(N(Cc2ccsc2)C(=O)Cn2nnc3ccccc32)cc1
  inhibition: 10.3% (inactive)

## CC(C)(C)NC(=O)C(c1cccnc1)N(C(=O)c1ccc(Cl)o1)c1ccc(C(C)(C)C)cc1 (configuration not stated)
  inhibition: 89.6%

## CC(=O)Nc1ccc(N(C(=O)Cn2nnc3ccccc32)C(C(=O)NC(C)(C)C)c2cccc(F)c2)cc1 (configuration not stated)
  inhibition: 90.2%

## CCC(C)c1ccc(N(C(=O)c2ccco2)[C@H](C(=O)NC(C)(C)C)c2cccnc2)cc1 (some centres not stated)
  inhibition: 93.1%

## O=C(NCc1ccccc1)C(c1cccc(F)c1)N(C(=O)Cn1nnc2ccccc21)C12CC3CC(CC(C3)C1)C2 (configuration not stated)
  inhibition: 11.1% (inactive)

## CC(C)(C)NC(=O)C(c1cccnc1)N(C(=O)c1ccc[nH]1)c1ccc(C(C)(C)C)cc1 (configuration not stated)
  inhibition: 18.6% (inactive)

## CC(C)(C)NC(=O)C(c1cccc(F)c1)N(C(=O)Cn1nnc2ccccc21)C12CC3CC(CC(C3)C1)C2 (configuration not stated)
  inhibition: 10.6% (inactive)

## O=C(Nc1ccc(N(Cc2ccsc2)C(=O)Cn2nnc3ccccc32)cc1)C1CCCCC1
  inhibition: 22.1% (inactive)

## CC(C)(C)NC(=O)C(c1ccsc1)N(C(=O)Cn1nnc2ccccc21)c1ccc(NC(=O)c2ccccc2)cc1 (configuration not stated)
  inhibition: -7% (inactive)

## CC(C)(C)C(=O)Nc1ccc(N(Cc2ccsc2)C(=O)Cn2nnc3ccccc32)cc1
  inhibition: 86.3%

## O=C(Nc1ccc(N(Cc2ccsc2)C(=O)Cn2nnc3ccccc32)cc1)C1CCC1
  inhibition: 85.7%

## CC(C)(C)NC(=O)C(c1cccc(F)c1)N(C(=O)Cn1nnc2ccccc21)C1CC2CCC1C2 (configuration not stated)
  inhibition: 32.7% (inactive)

## CC(C)(C)NC(=O)C(c1ccsc1)N(C(=O)Cn1nnc2ccccc21)c1ccc(NC(=O)C2CCC2)cc1 (configuration not stated)
  inhibition: 22.7% (inactive)

## CC(C)C(=O)Nc1ccc(N(Cc2ccsc2)C(=O)Cn2nnc3ccccc32)cc1
  inhibition: 83.6%

## CC(C)(C)NC(=O)C(c1cncnc1)N(C(=O)c1cnco1)c1ccc(C(C)(C)C)cc1 (configuration not stated)
  inhibition: 36.2% (inactive)

## CC(C)(C)NC(=O)C(c1ccsc1)N(C(=O)Cn1nnc2ccccc21)c1ccc(NC(=O)c2cccs2)cc1 (configuration not stated)
  inhibition: 14.6% (inactive)

## O=C(Nc1ccc(N(Cc2ccsc2)C(=O)Cn2nnc3ccccc32)cc1)C1CC1
  inhibition: 82.8%

## O=C(Nc1ccc(N(Cc2ccsc2)C(=O)Cn2nnc3ccccc32)cc1)c1ccccc1
  inhibition: 18.2% (inactive)

## CC(C)(C)NC(=O)C(c1ccsc1)N(C(=O)Cn1nnc2ccccc21)c1ccc(NC(=O)c2ccno2)cc1 (configuration not stated)
  inhibition: 59.4%

## CC(C)(C)NC(=O)C(c1cccnc1)N(C(=O)c1ncco1)c1ccc(C(C)(C)C)cc1 (configuration not stated)
  inhibition: 51.6%
